Source: BindingDB's records for doi:10.7270/Q2D798VP (Broad Institute, 2009)
Where a name gives a salt, the structure may show the parent alone.

target: T1, Zinc finger protein mex-5 (Caenorhabditis elegans, UniProt Q9XUB2); assay: MEX-5/TCR-2 RNA interaction inhibitors, dose response, biochemical, C. elegans, fluorescence polarization (AID 1960)
T1 sequence (Q9XUB2 whole entry): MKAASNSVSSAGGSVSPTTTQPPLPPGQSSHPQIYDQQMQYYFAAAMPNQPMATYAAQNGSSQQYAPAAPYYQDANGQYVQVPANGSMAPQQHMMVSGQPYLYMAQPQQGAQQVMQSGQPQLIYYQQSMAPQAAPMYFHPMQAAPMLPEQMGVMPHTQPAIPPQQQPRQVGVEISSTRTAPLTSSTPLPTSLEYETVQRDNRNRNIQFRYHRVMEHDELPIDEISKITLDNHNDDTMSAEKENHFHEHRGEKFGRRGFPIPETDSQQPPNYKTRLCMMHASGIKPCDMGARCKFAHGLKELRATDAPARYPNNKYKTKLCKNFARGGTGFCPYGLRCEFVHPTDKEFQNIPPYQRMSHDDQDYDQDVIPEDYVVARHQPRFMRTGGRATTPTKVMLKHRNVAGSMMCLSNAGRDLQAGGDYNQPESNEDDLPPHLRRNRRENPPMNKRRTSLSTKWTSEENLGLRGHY

Going from C=CCSc1nnc(N2C(=O)C(=O)C(C(=O)c3ccco3)C2c2ccccc2F)s1 (stereo not given) [1-[5-(allylthio)-1,3,4-thiadiazol-2-yl]-5-(2-fluorophenyl)-4-(2-furoyl)-3-hydroxy-3-pyrrolin-2-one] to Cc1ccc(C2C(C(=O)c3ccco3)C(=O)C(=O)N2c2nnc(C)s2)cc1 (stereo not given) [3-(furan-2-carbonyl)-4-hydroxy-2-(4-methylphenyl)-1-(5-methyl-1,3,4-thiadiazol-2-yl)-2H-pyrrol-5-one], the EC50 rises from 54.8 µM to > 300 µM. The first is the more potent here.

Going from O=[N+]([O-])c1ccc(/N=N/c2ncc[nH]2)cc1 [N-(imidazol-2-ylideneamino)-4-nitroaniline] to COc1cc(CN=Nc2ccc([N+](=O)[O-])cc2)ccc1OCC(=O)Nc1ccc(C)c(C)c1 [MLS000537060], the EC50 rises from 20.7 µM to 234 µM (11-fold). The first is the more potent here.

Compared with CCCCN1C(=O)/C(=C2/Sc3ccccc3N2C)SC1=Nc1nnc[nH]1 [SMR000282142], CC(C)c1ccc(C2C(C#N)=C3Sc4ccccc4N3C(=N)C2C#N)cc1 (stereo not given) [1-amino-3-(4-propan-2-ylphenyl)-3H-pyrido[2,1-b][1,3]benzothiazole-2,4-dicarbonitrile] is 1.6-fold higher in EC50: 39.1 µM for the first, 61.3 µM for the second. The first is the more potent here.

Compared with CC1CCC2=C(C#N)C(=N)C(C#N)(C#N)C(c3cccs3)C2C1 (stereo not given) [2-amino-6-methyl-4-(2-thienyl)-4a,5,6,7-tetrahydro-4H-naphthalene-1,3,3-tricarbonitrile], CN1CCC2=C(C#N)C(=N)C(C#N)(C#N)C(c3ccncc3)C2C1 (stereo not given) [6-amino-2-methyl-8-(4-pyridyl)-1,3,8,8a-tetrahydroisoquinoline-5,7,7-tricarbonitrile] is 1.9-fold lower in EC50: 14.9 µM for the first, 7.73 µM for the second.

Compared with O=CC(C=Nc1ccccn1)c1nc2ccccc2o1 (stereo not given) [2-Benzooxazol-2-yl-3-(pyridin-2-ylamino)-propenal], c1ccc(C2=NNC(c3ccccn3)N=N2)nc1 (stereo not given) [SMR000549436] is lower in EC50: > 300 µM for the first, 22.4 µM for the second.

Compared with Oc1ccc2ccccc2c1CN=Nc1nnc(-c2ncc[nH]2)c2ccccc12 [SMR000151639], COc1ccccc1OCC(=O)NN=Cc1c(O)ccc2ccccc12 is 53-fold higher in EC50: 2.45 µM for the first, 131 µM for the second. The first is the more potent here.

Compared with C[C@H]1c2cccc(O)c2C(=O)C2C(=O)[C@]3(O)C(=O)C(C(N)=O)C(=O)[C@@H](N(C)C)C3C(O)C21 (stereo partly drawn) [(2Z,4S,5S,6R,12aS)-2-[amino(hydroxy)methylidene]-4-(dimethylamino)-5,10,11,12a-tetrahydroxy-6-methyl-4a,5,5a,6-tetrahydro-4H-tetracene-1,3,12-trione;ethanol;hydrate;hydrochloride], COc1cccc(C2C(C(=O)c3cc4cccc(OC)c4o3)C(=O)C(=O)N2c2cc(C)on2)c1OC (stereo not given) [2-(2,3-dimethoxyphenyl)-3-[(7-methoxy-1-benzofuran-2-yl)carbonyl]-1-(5-methyl-1,2-oxazol-3-yl)-4-oxidanyl-2H-pyrrol-5-one] is higher in EC50: 45.3 µM for the first, > 300 µM for the second. The first is the more potent here.

Going from O=C1N=C(N2C=CC(c3ccncc3)C=C2)C(=CN=NC(=O)c2ccccc2O)S1 [SMR000646350] to O=C(NN=Cc1c(O)n(-c2ccccc2)c(=S)[nH]c1=O)c1ccc(O)cc1 [N'-[(1Z)-(4,6-dioxo-1-phenyl-2-thioxohexahydropyrimidin-5-yl)methylene]-4-hydroxybenzohydrazide], the EC50 rises from 10.7 µM to 63.7 µM (6-fold). The first is the more potent here.

N#CC1C(=N)OC2=C(C(=O)CCC2)[C@]12C(=O)N(CC(N)=O)c1ccccc12 (stereo partly drawn) [2-[(4R)-2-amino-3-cyano-2',5-diketo-spiro[7,8-dihydro-6H-chromene-4,3'-indoline]-1'-yl]acetamide] and CC1(C)CC(=O)C2=C(C1)OC(=N)C(C#N)[C@@]21C(=O)N(CC(N)=O)c2ccccc21 (stereo partly drawn) [2-[(4R)-2-amino-3-cyano-2',5-diketo-7,7-dimethyl-spiro[6,8-dihydrochromene-4,3'-indoline]-1'-yl]acetamide] cannot be ordered by EC50: > 300 µM for the first, > 300 µM for the second.

Compared with COc1ccc(OC)c(N2C(=O)C(=Cc3ccco3)C(=O)NC2=S)c1 [MLS001197216], O=C1NC(=O)N(c2ccc(F)cc2)C(=O)C1=Cc1c[nH]c2ccccc12 [SMR000556295] is higher in EC50: 10.8 µM for the first, > 300 µM for the second. The first is the more potent here.

Going from O=C(Cc1nc2cc(Cl)ccc2oc1=O)c1ccco1 [(3Z)-6-chloranyl-3-[2-(furan-2-yl)-2-oxidanylidene-ethylidene]-4H-1,4-benzoxazin-2-one] to Cc1ccc2oc(=O)c(CC(=O)c3cccs3)nc2c1 [(3Z)-3-[2-keto-2-(2-thienyl)ethylidene]-6-methyl-4H-1,4-benzoxazin-2-one], the EC50 falls from > 300 µM to 6.82 µM. The second is the more potent here.

Compared with CCCOc1cccc(C2C(C(=O)c3ccco3)C(=O)C(=O)N2c2nnc(C)s2)c1 (stereo not given) [3-(furan-2-carbonyl)-4-hydroxy-1-(5-methyl-1,3,4-thiadiazol-2-yl)-2-(3-propoxyphenyl)-2H-pyrrol-5-one], C=CCOc1cccc(C2C(C(=O)c3ccc(C)o3)C(=O)C(=O)N2c2nnc(C)s2)c1 (stereo not given) [3-(5-methylfuran-2-yl)carbonyl-1-(5-methyl-1,3,4-thiadiazol-2-yl)-4-oxidanyl-2-(3-prop-2-enoxyphenyl)-2H-pyrrol-5-one] is 2.5-fold higher in EC50: 82.7 µM for the first, 210 µM for the second.

CC1(C)c2[nH]c3ccccc3c2Cc2c(O)n(-c3ccc(F)cc3F)c(=O)n21 [MLS001065879] and O=C(c1ccccc1)[C@@H]1c2c(c(O)n(-c3ccc(F)cc3)c2O)C2CCCN21 (stereo not given in full) [MLS000769629] are within 1.5-fold of each other in EC50: 46.8 µM for the first, 40.9 µM for the second.

Compared with Cc1[nH]n(C(N)=S)c(=O)c1N=Nc1c(Cl)cc([N+](=O)[O-])cc1Cl [SMR000514008], COc1cc(CN=Nc2[nH]c(=O)nnc2C)ccc1O [5-[2-[(E)-(3-methoxy-4-oxocyclohexa-2,5-dien-1-ylidene)methyl]hydrazinyl]-6-methyl-2H-1,2,4-triazin-3-one] is 2.8-fold lower in EC50: 85.9 µM for the first, 31.1 µM for the second.

First: O=C1NC(=O)N(CCc2ccccc2)C(=O)C1=CNNC(=O)c1ccccc1 [SMR000433912]
Second: Cc1c(NC=C2C(=O)N(C)C(=O)c3ccccc32)c(=O)n(-c2ccccc2)n1C [(4E)-4-[[(1,5-dimethyl-3-oxo-2-phenyl-4-pyrazolyl)amino]methylidene]-2-methylisoquinoline-1,3-dione]
The EC50 of the first is lower: 150 µM for the first, > 300 µM for the second.

First: Cc1ccc(Cl)c2c1=NC(=O)C=2NNc1ccccc1
Second: Cn1c2cc(=N)ccc-2c2ccc(N)cc2c1-c1ccccc1 [(3-amino-5-methyl-6-phenyl-phenanthridin-5-ium-8-yl)amine;bromide]
The EC50 of the first is higher: > 300 µM for the first, 5.36 µM for the second.

First: CC(C)c1nnc(N2C(=O)C(=O)C(C(=O)c3cccs3)C2c2ccccc2)s1 (stereo not given) [3-hydroxy-1-(5-isopropyl-1,3,4-thiadiazol-2-yl)-5-phenyl-4-(2-thenoyl)-3-pyrrolin-2-one]
Second: Cc1ccc(C(=O)C2C(=O)C(=O)N(Cc3ccco3)C2c2cccc(Br)c2)o1 (stereo not given) [2-(3-bromophenyl)-1-(2-furanylmethyl)-4-hydroxy-3-[(5-methyl-2-furanyl)-oxomethyl]-2H-pyrrol-5-one]
The EC50 of the first is 8.1-fold lower: 4.38 µM for the first, 35.6 µM for the second.

Compared with CN=c1scc(C)n1N=Cc1ccc(O)c(O)c1O [(4E)-2,3-dihydroxy-4-[[(4-methyl-2-methylimino-1,3-thiazol-3-yl)amino]methylidene]cyclohexa-2,5-dien-1-one], COc1cccc(C=NNC(=O)c2ccc(=O)[nH]n2)c1O [N'-[(E)-(5-methoxy-6-oxocyclohexa-2,4-dien-1-ylidene)methyl]-6-oxo-1H-pyridazine-3-carbohydrazide] is 5.3-fold lower in EC50: 67.1 µM for the first, 12.6 µM for the second.

COc1cc(C2C3=C(CCCC3=O)OC(=N)C2C#N)cc(OC)c1OC(=O)N1CCOCC1 (stereo not given) [4-(2-amino-3-cyano-5-oxo-5,6,7,8-tetrahydro-4H-chromen-4-yl)-2,6-dimethoxyphenyl morpholine-4-carboxylate] and COc1ccc(C2C3=C(CC(C)CC3=O)OC(=N)C2C#N)c(OC)c1OC (stereo not given) [2-amino-5-keto-7-methyl-4-(2,3,4-trimethoxyphenyl)-4,6,7,8-tetrahydrochromene-3-carbonitrile] cannot be ordered by EC50: > 300 µM for the first, > 300 µM for the second.

Going from CC(N=Nc1ccc(Cl)c(C(=O)O)c1)c1ccc[nH]1 (stereo not given) [2-chloro-5-[2-[(1Z)-1-pyrrol-2-ylideneethyl]hydrazinyl]benzoic acid] to COc1ccc(C(C)N=Nc2nc3ccccc3nc2C)cc1OC (stereo not given) [MLS001029936], the EC50 falls from 150 µM to 66.5 µM (2.3-fold).

Going from COc1cc(C2C3CN(C)CCC3=C(C#N)C(=N)C2(C#N)C#N)ccc1OC(C)C (stereo not given) [MLS000034945] to COc1ccc(C=C2CCCC(C(=O)C(F)(F)F)C2=O)cc1OC (stereo not given) [(2E,6Z)-2-(3,4-dimethoxybenzylidene)-6-(2,2,2-trifluoro-1-hydroxyethylidene)cyclohexanone], the EC50 rises from 31.3 µM to 254 µM (8.1-fold). The first is the more potent here.

Going from O=[N+]([O-])c1cc([CH+][N-]n2c(O)csc2=S)ccc1Cl [3-[(4-chloranyl-3-nitro-phenyl)methylideneamino]-2-sulfanylidene-1,3-thiazolidin-4-one] to Clc1ccc(C2=Nc3ncnn3C(c3ccco3)C2)cc1 (stereo not given), the EC50 falls from 15.7 µM to 3.36 µM (4.7-fold).

First: Cc1nnc(SC(=Cc2ccc(OCc3ccc(C(=O)O)cc3)cc2)C(=O)O)[nH]1 [4-[[4-[(E)-2-[(5-methyl-1H-1,2,4-triazol-3-yl)sulfanyl]-3-oxidanyl-3-oxidanylidene-prop-1-enyl]phenoxy]methyl]benzoic acid]
Second: C=CC(=O)N1CCCC(n2nc(-c3ccc(Oc4ccccc4)cc3)c3c(N)ncnc32)C1 (stereo not given) [US8497277, 4]
The EC50 of the first is lower: 3.38 µM for the first, > 300 µM for the second. The first is the more potent here.

Compared with Cc1cc(C)cc(N2C(=O)NC(=O)C(=Cc3cccn3-c3ccc(Cl)cc3)C2=O)c1 [MLS000545741], CCOC(=O)C1C(=O)C(=Cc2cn(CC(=O)N3CCCC3)c3ccccc23)S/C1=N\c1ccccc1 (stereo not given) [(5Z)-2-anilino-4-keto-5-[[1-(2-keto-2-pyrrolidino-ethyl)indol-3-yl]methylene]thiophene-3-carboxylic acid ethyl ester] is 5.2-fold lower in EC50: 136 µM for the first, 26.2 µM for the second. The second is the more potent here.

First: O=C1CC(=O)c2c(O)cc(O)c(O)c2C1=O [4,5,7,8-tetrahydroxy-1,2-naphthoquinone]
Second: CN1CCC2(CC1)C(C#N)C(=N)NC(=S)C2C#N (stereo not given) [SMR000211480]
The EC50 of the first is 9.5-fold lower: 0.899 µM for the first, 8.53 µM for the second. The first is the more potent here.
